The results in this text go back to US11236086B2, “Substituted pyrrolopyridines as inhibitors of activin receptor-like kinase” (BLUEPRINT MEDICINES CORPORATION, priority 2017, dated 2022).

The target of assay [1] is T1, ALK2R206H (mutant ALK2, N-terminally tagged with GST) (Homo sapiens, UniProt Q04771, R206H).
T1 construct: purchased Carna Bioscience or ThermoFisher 09-148 or PV6232
T1 sequence (Q04771 21-509 R206H): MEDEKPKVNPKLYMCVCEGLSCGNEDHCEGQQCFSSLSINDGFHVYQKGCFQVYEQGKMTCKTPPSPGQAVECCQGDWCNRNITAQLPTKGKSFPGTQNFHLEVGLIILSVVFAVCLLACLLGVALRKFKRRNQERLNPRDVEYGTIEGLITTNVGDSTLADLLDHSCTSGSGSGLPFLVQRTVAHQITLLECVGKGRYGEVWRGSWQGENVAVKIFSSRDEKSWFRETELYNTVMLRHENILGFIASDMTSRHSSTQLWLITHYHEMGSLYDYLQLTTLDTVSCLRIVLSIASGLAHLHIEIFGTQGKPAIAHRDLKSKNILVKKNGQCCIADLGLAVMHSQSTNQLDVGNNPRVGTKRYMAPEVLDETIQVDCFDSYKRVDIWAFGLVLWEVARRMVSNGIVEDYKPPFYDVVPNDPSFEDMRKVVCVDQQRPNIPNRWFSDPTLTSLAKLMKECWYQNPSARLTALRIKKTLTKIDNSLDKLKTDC
Nature of the assay: ALK binding assay (LANTHASCREEN TR-FRET competitive binding, displacement of Kinase Tracer 178). The note with it: read-out: Binding Assay (IC50 class). In short, it runs like this:
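GST-tagged ALK2 R206H (2-5 nM) mixed with Eu-anti-GST antibody (4-10 nM), Kinase Tracer 178 (50 nM, near its Kd) and compound titration (1% DMSO) in Kinase Buffer A, 30 min at room temperature. Tracer displacement read as TR-FRET ratio, normalized to controls; IC50 from 4-parameter fit.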

Assay [2] deals with T2, human ALK2 R206H (Homo sapiens, UniProt Q04771, R206H).
T2 construct: expressed in transfected cells; host or cells: HEK293 (ATCC CRL1573), lentivirus transduction, blasticidin selection
T2 sequence (Q04771 21-509 R206H): T1 sequence (Q04771 21-509 R206H)
Briefly: Cell-based ALK2-R206H cell activity assay (Smad1-Ser463/Ser465 phosphorylation by AlphaLISA in HEK293-ALK2-R206H cells). The note with it: phospho-Smad1 AlphaLISA, read-out: Cell Line (Cell Assay, IC50 class). In short, it runs like this: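 HEK293 stable line expressing human ALK2 R206H with C-terminal FLAG, plated overnight in serum-free medium. Cells were treated 2-3 h with compound over 10 3-fold doses, top 10 μM or 1 μM, in duplicate. Phospho-Smad1 Ser463/465 in lysate was read by AlphaLISA; IC50 was normalised to DMSO (0%) and 1 μM LDN193189 (100%).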
(Bead proximity is the source of the signal in Alpha formats.)

SMILES strings stand for the structures.

The term IC50 denotes the concentration needed to halve the response being measured.

With `O=C(C1CC1)N1CCN(c2ccnc3[nH]c(-c4cnn(C5CCC5)c4)cc23)CC1` [Compound 128], the IC50 in assay [1] was at most 10 nM; in assay [2] it was 100 to 500 nM.

On to `Cc1nc(-c2cc3c(N4CCN(C(=O)OC5CCC5)CC4)ccnc3[nH]2)sc1C` [Compound 242], for which the IC50 in assay [1] was at most 10 nM; in assay [2], at most 100 nM.

`N#Cc1c(-c2cnn(C(F)F)c2)[nH]c2nccc(N3CCN(C(=O)OC4COC4)CC3)c12` [Compound 376]: the values for the IC50 in assay [1] and in assay [2] were at most 10 nM and at most 100 nM, respectively.

Regarding `O=C(OC1COC1)N1CCN(c2ccnc3[nH]c(-c4ccc([C@]5(O)CCOC5)cc4)cc23)CC1` [Compound 429], the IC50 in assay [1] was at most 10 nM; in assay [2] it was at most 100 nM.

As to `Cc1csc(-c2cc3c(N4CCN(C(=O)C5CC5)CC4)ccnc3[nH]2)n1` [Compound 35], the IC50 in assay [1] was at most 10 nM; in assay [2], 100 to 500 nM.

Regarding `Cn1cnc(-c2cc3c(N4CCN(C(=O)O[C@H]5C[C@@H](F)C5)CC4)ccnc3[nH]2)c1` [Compound 160], the IC50 in assay [1] was at most 10 nM; in assay [2], at most 100 nM.

As for `Cn1cnc(-c2cc3c(N4CCN(C(=O)OCC(F)F)CC4)ccnc3[nH]2)c1` [Compound 124], the figures for the IC50 in assay [1] and in assay [2] were at most 10 nM and at most 100 nM, respectively.

Regarding `N#Cc1cc(-c2cc3c(N4CCN(C(=O)OC5COC5)CC4)ccnc3[nH]2)cs1` [Compound 227], the results for the IC50 in assay [1] and in assay [2] were at most 10 nM and 100 to 500 nM, respectively.

`CCOC(=O)N1CCN(c2ccnc3[nH]c(-c4ccc(C5(OC)CCN(C(C)CF)CC5)cn4)cc23)CC1` (stereo not shown) [Compound 476]: the IC50 is at most 10 nM in assay [1] and at most 100 nM in assay [2].

On to `CCCOC(=O)N1CCN(c2ccnc3[nH]c(-c4cnn(C)c4)cc23)CC1` [Compound 40], for which the IC50 in assay [1] was at most 10 nM; in assay [2], 100 to 500 nM.

As for `CCOC(=O)N1CCN(c2ccnc3[nH]c(-c4cnn(C(C)(C)C#N)c4)cc23)CC1` [Compound 213], the IC50 is at most 10 nM in assay [1] and 100 to 500 nM in assay [2].

Consider `O=C(OC1COC1)N1CCN(c2ccnc3[nH]c(-c4ncc(C5CC5)s4)cc23)CC1` [Compound 312], for which the concentration for half-maximal inhibition (IC50) in assay [1] is at most 10 nM; in assay [2], at most 100 nM.

Regarding `Cc1ncc(-c2cc3c(N4CCN(C(=O)OC5COC5)CC4)ccnc3[nH]2)o1` [Compound 103], the IC50 in assay [1] is at most 10 nM; in assay [2] it was 100 to 500 nM.

In the case of `Cc1nc(-c2[nH]c3nccc(N4CCN(C(=O)OCC(F)F)CC4)c3c2C#N)cs1` [Compound 337], the IC50 in assay [1] is at most 10 nM; in assay [2] it was at most 100 nM.

Regarding `Cc1nc(-c2cc3c(N4CCN(C(=O)O[C@H]5C[C@H](F)C5)CC4)ccnc3[nH]2)cn1C` [Compound 244], the results for the IC50 in assay [1] and in assay [2] were at most 10 nM and at most 100 nM, respectively.

On to `CCOC(=O)N1CCN(c2ccnc3[nH]c(-c4csc(C)n4)cc23)CC1` [Compound 46], for which the values for the IC50 in assay [1] and in assay [2] were at most 10 nM and at most 100 nM, respectively.

Take `Cn1cc(-c2cc3c(N4CCN(C(=O)OC5COC5)CC4)ccnc3[nH]2)c(F)n1` [Compound 179]: the IC50 is at most 10 nM in assay [1] and 100 to 500 nM in assay [2].

For `Cc1nc(-c2cc3c(N4CCN(C(=O)O[C@@H]5CCC5(F)F)CC4)ccnc3[nH]2)cn1C` [Compound 326], the IC50 is at most 10 nM in assay [1] and at most 100 nM in assay [2].

Regarding `CC(C)COC(=O)N1CCN(c2ccnc3[nH]c(-c4cnn(C)c4)cc23)CC1` [Compound 97], the IC50 in assay [1] was at most 10 nM; in assay [2], 100 to 500 nM.

As to `O=C(C1CC1)N1CCN(c2ccnc3[nH]c(-c4ccc(OCCN5CCCC5)cc4)cc23)CC1` [Compound 421], the IC50 in assay [1] is at most 10 nM; in assay [2], at most 100 nM.

With `Cn1cc(-c2cc3c(N4CCN(C(=O)C5CCCC5)CC4)ccnc3[nH]2)cn1` [Compound 64], the IC50 was at most 10 nM in assay [1] and 100 to 500 nM in assay [2].

Consider `CC(C)n1cnc(-c2cc3c(N4CCN(C(=O)OC5COC5)CC4)ccnc3[nH]2)c1` [Compound 231], for which the IC50 in assay [1] is at most 10 nM; in assay [2], at most 100 nM.

For `Cn1cc(-c2cc3c(N4CCN(C(=O)CC(F)(F)F)CC4)ccnc3[nH]2)cn1` [Compound 131], the IC50 in assay [1] is 10 to 50 nM; in assay [2], over 500 nM.

Turning to `Cn1cc(-c2[nH]c3nccc(N4CCN(C(=O)OC5COC5)CC4)c3c2C#N)cn1` [Compound 207], the IC50 in assay [1] is at most 10 nM; in assay [2], at most 100 nM.

`Cn1cc(-c2[nH]c3nccc(N4CCN(C(=O)O[C@H]5C[C@H](F)C5)CC4)c3c2F)cn1` [Compound 267]: the values for the IC50 in assay [1] and in assay [2] were at most 10 nM and at most 100 nM, respectively.

In the case of `COc1ccc(-c2cc3c(N4CCN(C(=O)C5CC5)CC4)ccnc3[nH]2)cc1` [Compound 60], the IC50 in assay [1] was at most 10 nM; in assay [2], 100 to 500 nM.

On to `O=C(C1CC1)N1CCN(c2ccnc3[nH]c(-c4ccc(N5CCN(C6COC6)CC5)cc4)cc23)CC1` [Compound 452], for which the IC50 is at most 10 nM in assay [1] and at most 100 nM in assay [2].

As to `Cn1cc(-c2cc3c(N4CCN(C(=O)CC5CC5)CC4)ccnc3[nH]2)cn1` [Compound 21], the IC50 in assay [1] was at most 10 nM; in assay [2] it was 100 to 500 nM.

`Cn1cnc(-c2cc3c(N4CCN(C(=O)OC5COC5)CC4)ccnc3[nH]2)c1` [Compound 89]: the IC50 was at most 10 nM in assay [1] and at most 100 nM in assay [2].

As for `CCOC(=O)N1CCN(c2ccnc3[nH]c(-c4ncc(OC)cc4C#N)cc23)CC1` [Compound 204], the IC50 was at most 10 nM in assay [1] and 100 to 500 nM in assay [2].

Regarding `CCn1cnc(-c2[nH]c3nccc(N4CCN(C(=O)OC5COC5)CC4)c3c2C#N)c1` [Compound 290], the half-maximal inhibitory concentration (IC50) was at most 10 nM in assay [1] and at most 100 nM in assay [2].

On to `Cn1cc(-c2[nH]c3nccc(N4CCN(C(=O)OCC(F)F)CC4)c3c2C#N)cn1` [Compound 256], for which the IC50 in assay [1] was at most 10 nM; in assay [2], at most 100 nM.

On to `CS(=O)(=O)c1ccc(-c2cc3c(N4CCN(C(=O)C5CC5)CC4)ccnc3[nH]2)cc1` [Compound 307], for which the IC50 is at most 10 nM in assay [1] and 100 to 500 nM in assay [2].

With `CCCOC(=O)N1CCN(c2ccnc3[nH]c(-c4cnn(C)c4)c(Cl)c23)CC1` [Compound 187], the IC50 is at most 10 nM in assay [1] and at most 100 nM in assay [2].

Regarding `Cn1cc(-c2[nH]c3nccc(N4CCN(C(=O)[C@H]5C[C@@H]5C#N)CC4)c3c2Cl)cn1` [Compound 228], the figures for the IC50 in assay [1] and in assay [2] were at most 10 nM and at most 100 nM, respectively.

With `O=C(C1CC1)N1CCN(c2ccnc3[nH]c(-c4ccc(N5CCOCC5)cc4)cc23)CC1` [Compound 335], the figures for the IC50 in assay [1] and in assay [2] were at most 10 nM and at most 100 nM, respectively.

For `Cn1cc(-c2cc3c(N4CCN(C(=O)O[C@H]5C[C@@H](F)C5)CC4)ccnc3[nH]2)cn1` [Compound 161], the IC50 in assay [1] is at most 10 nM; in assay [2], at most 100 nM.

As to `CCOC(=O)N1CCN(c2ccnc3[nH]c(-c4cnn(C)c4)c(F)c23)CC1` [Compound 50], the IC50 in assay [1] was at most 10 nM; in assay [2] it was at most 100 nM.

As for `O=C(C1CC1)N1CCN(c2ccnc3[nH]c(-c4ccc(C5CCCOC5)cc4)cc23)CC1` (stereo not shown) [Compound 328], the IC50 was at most 10 nM in assay [1] and at most 100 nM in assay [2].

As for `CCOC(=O)N1CCN(c2ccnc3[nH]c(-c4cnn(S(C)(=O)=O)c4)cc23)CC1` [Compound 281], the IC50 in assay [1] was at most 10 nM; in assay [2] it was 100 to 500 nM.

In the case of `Cc1cnc(-c2cc3c(N4CCN(C(=O)C5CC5)CC4)ccnc3[nH]2)s1` [Compound 34], the IC50 in assay [1] is at most 10 nM; in assay [2], 100 to 500 nM.

With `CCOC(=O)N1CCN(c2ccnc3[nH]c(-c4ccc(OC(C)C)cc4)cc23)CC1` [Compound 221], the values for the IC50 in assay [1] and in assay [2] were at most 10 nM and 100 to 500 nM, respectively.

`Cc1nc(-c2cc3c(N4CCN(C(=O)O[C@@H]5CC(F)(F)C5(F)F)CC4)ccnc3[nH]2)cn1C` [Compound 433]: the IC50 in assay [1] is at most 10 nM; in assay [2], at most 100 nM.

As to `N#CC1(c2ccc(-c3cc4c(N5CCN(C(=O)C6CC6)CC5)ccnc4[nH]3)cc2)CC1` [Compound 241], the results for the IC50 in assay [1] and in assay [2] were at most 10 nM and at most 100 nM, respectively.

In the case of `Cn1cnc(-c2[nH]c3nccc(N4CCN(C(=O)O[C@H]5C[C@@H](F)C5)CC4)c3c2C#N)c1` [Compound 296], the IC50 in assay [1] was at most 10 nM; in assay [2], at most 100 nM.

In the case of `CC(C)(O)c1ccc(-c2cc3c(N4CCN(C(=O)C5CC5)CC4)ccnc3[nH]2)cc1` [Compound 195], the IC50 in assay [1] is at most 10 nM; in assay [2], at most 100 nM.

For `N#Cc1c(-c2nc3c(s2)COCC3)[nH]c2nccc(N3CCN(C(=O)OC4COC4)CC3)c12` [Compound 434], the IC50 in assay [1] is at most 10 nM; in assay [2], at most 100 nM.
